Data on 37 compounds can be found in patent US8178553B2, “Compounds for the treatment of inflammatory disorders” (Schering Corporation, priority 2006, dated 2012).

T1 sequence (P78536 215-477 S266A/N452Q): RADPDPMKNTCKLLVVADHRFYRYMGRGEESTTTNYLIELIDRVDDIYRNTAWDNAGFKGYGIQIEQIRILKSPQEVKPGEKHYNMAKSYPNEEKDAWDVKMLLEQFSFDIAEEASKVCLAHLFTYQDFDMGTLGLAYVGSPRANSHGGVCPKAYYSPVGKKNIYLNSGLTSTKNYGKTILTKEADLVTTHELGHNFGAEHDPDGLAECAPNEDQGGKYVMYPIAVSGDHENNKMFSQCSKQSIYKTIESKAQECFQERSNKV

One assay addresses T1, purified catalytic domain of recombinant human TACE (rhTACEc) (Homo sapiens, UniProt P78536, N452Q/S266A).
T1 construct: rhTACEc, Residue 215 to 477 with two mutation (S266A and N452Q) and a 6xHis tail; 6xHis (C); made in house; host or cells: baculovirus/Hi5 insect cells
Kind of assay: TACE kinetic assay, cleavage of internally quenched fluorescent peptide substrate SPDL-3.
Conditions: not given
Format: biochemical. As for the experimental part:
TACE activity is determined by a kinetic assay measuring the rate of increase in fluorescent intensity generated by TACE catalyzed cleavage of an internally quenched peptide substrate (SPDL-3). […] It is purified from the baculovirus/Hi5 cells expression system using affinity chromatography. […] MCA is (7-Methoxycoumarin-4-yl)acetyl. Dpa is N-3-(2,4-Dinitrophenyl)-L-2,3-diaminopropionyl.
A 50 μl assay mixture contains 20 mM HEPES, pH 7.3, 5 mM CaCl2, 100 µM ZnCl2, 2% DMSO, 0.04% Methylcellulose, 30 μM SPDL-3, 70 pM rhTACEc and a test compound. RhTACEc is pre-incubated with the testing compound for 90 min. at 25° C. Reaction is started by addition of the substrate. […] Rate of enzymatic reaction is shown as Units per second. Effect of a test compound is shown as % of TACE activity in the absence of the compound.
As for `COc1ccc2c(c1)C(=O)N(C[C@@]1(c3ccc(OC(=O)N(C)C)cc3)NC(=O)NC1=O)C2` [Compound 93], the Ki (usually a dissociation constant, usually derived from enzyme kinetics or from competition with a known ligand) was under 10 nM.

The same assay, now with this note: Specific TACE inhibitory activity of representative compounds; read-out: Ki.
For `COc1ccc2c(c1)C(=O)N(C[C@@]1(c3ccc(-c4cnc(N)c(C(N)=O)c4)cc3)NC(=O)NC1=O)C2` [Compound 68], the Ki was found to be 0.23 nM. Turning to `COc1ccc2c(c1)C(=O)N(C[C@@]1(c3ccc(-c4cccc(C(N)=O)n4)cc3)NC(=O)NC1=O)C2` [Compound 76], the Ki was 0.66 nM. As for `CNC(=O)c1ccc(Oc2ccc([C@]3(CN4Cc5ccc(OC)cc5C4=O)NC(=O)NC3=O)cc2)cc1` [Compound 84], the Ki worked out at 4 nM.

As to `COc1ccc2c(c1)C(=O)N(C[C@@]1(c3ccc(Oc4cccc(C(N)=O)c4)cc3)NC(=O)NC1=O)C2` [Compound 85], the Ki came out at 0.46 nM. Turning to `COc1ccc2c(c1)C(=O)N(C[C@@]1(c3cc4cc(/C=N/O)ccc4o3)NC(=O)NC1=O)C2` [Compound 97], the inhibitory constant (Ki) amounted to 0.39 nM. The same measure, in the same setting: then `COc1ccc2c(c1)C(=O)N(C[C@@]1(c3cc4cc(C(N)=O)cnc4o3)NC(=O)NC1=O)C2` [Compound 98], with 0.71 nM.

Staying with this assay, now noted: TACE inhibition, Table 1; read-out: Ki Rating.
For the compound `COc1ccc2c(c1)C(=O)N(C[C@@]1(c3ccc(-c4cc(C(N)=O)cc(C)n4)cc3)NC(=O)NC1=O)C2` [Compound 67], the Ki was under 10 nM. Still for that read-out and setting: then `COc1ccc2c(c1)C(=O)N(C[C@@]1(c3ccc(-c4cnc(N)c(C(N)=O)c4)cc3)NC(=O)NC1=O)C2` [Compound 68], with under 10 nM. The same measure, in the same setting: then `CCNC(=O)c1cnc(-c2ccc([C@]3(CN4Cc5ccc(OC)cc5C4=O)NC(=O)NC3=O)cc2)cn1` [Compound 70], with under 10 nM; and `COc1ccc2c(c1)C(=O)N(C[C@@]1(c3ccc(-c4cnc(C(=O)NC5CC5)cn4)cc3)NC(=O)NC1=O)C2` [Compound 71], with under 10 nM.

For the compound `COc1ccc2c(c1)C(=O)N(C[C@@]1(c3ccc(-c4cnc(C(=O)NCC(F)(F)F)cn4)cc3)NC(=O)NC1=O)C2` [Compound 72], the Ki was under 10 nM. `COc1ccc2c(c1)C(=O)N(C[C@@]1(c3ccc(-c4cc(C#N)ccn4)cc3)NC(=O)NC1=O)C2` [Compound 73]: the Ki was under 10 nM. On to `COC(=O)c1ccnc(-c2ccc([C@]3(CN4Cc5ccc(OC)cc5C4=O)NC(=O)NC3=O)cc2)c1` [Compound 74], for which the Ki is under 10 nM. In the case of `COc1ccc2c(c1)C(=O)N(C[C@@]1(c3ccc(-c4ccc(C(N)=O)nc4)cc3)NC(=O)NC1=O)C2` [Compound 75], the Ki was under 10 nM.

Regarding `COc1ccc2c(c1)C(=O)N(C[C@@]1(c3ccc(-c4cccc(C(N)=O)n4)cc3)NC(=O)NC1=O)C2` [Compound 76], the Ki was under 10 nM. Take `CCOC(=O)c1n[nH]c2ccc(-c3ccc([C@]4(CN5Cc6ccc(OC)cc6C5=O)NC(=O)NC4=O)cc3)cc12` [Compound 77]: the Ki was under 10 nM. The same measure, in the same setting: then `COc1ccc2c(c1)C(=O)N(C[C@@]1(c3ccc(-c4ccc5[nH]nc(C(N)=O)c5c4)cc3)NC(=O)NC1=O)C2` [Compound 78], with under 10 nM; and `COc1ccc2c(c1)C(=O)N(C[C@@]1(c3ccc(-c4cnn(C)c4C#N)cc3)NC(=O)NC1=O)C2` [Compound 80], with under 10 nM. Same read-out and setting: then `COc1ccc2c(c1)C(=O)N(C[C@@]1(c3ccc(-c4cccc(C#N)c4)cc3)NC(=O)NC1=O)C2` [Compound 81], with under 10 nM; and `COc1ccc2c(c1)C(=O)N(C[C@@]1(c3ccc(Oc4ccc(C(=O)N5CCOCC5)cc4)cc3)NC(=O)NC1=O)C2` [Compound 82], with under 10 nM; and `COc1ccc2c(c1)C(=O)N(C[C@@]1(c3ccc(Oc4ccc(C(=O)NCCN(C)C)cc4)cc3)NC(=O)NC1=O)C2` [Compound 83], with under 10 nM.

On to `CNC(=O)c1ccc(Oc2ccc([C@]3(CN4Cc5ccc(OC)cc5C4=O)NC(=O)NC3=O)cc2)cc1` [Compound 84], for which the Ki was under 10 nM. With `COc1ccc2c(c1)C(=O)N(C[C@@]1(c3ccc(Oc4cccc(C(N)=O)c4)cc3)NC(=O)NC1=O)C2` [Compound 85], the Ki was under 10 nM. Still for that read-out and setting: then `COC(=O)c1cccc(Oc2ccc([C@]3(CN4Cc5ccc(OC)cc5C4=O)NC(=O)NC3=O)cc2)c1` [Compound 86], with under 10 nM. Take `COc1ccc2c(c1)C(=O)N(C[C@@]1(c3ccc(Oc4cccc(C(=O)N5CCOCC5)c4)cc3)NC(=O)NC1=O)C2` [Compound 87]: the Ki was under 10 nM. On the same count and under the same terms, then `COc1ccc2c(c1)C(=O)N(C[C@@]1(c3ccc(Oc4cccc(C(=O)N(C)C)c4)cc3)NC(=O)NC1=O)C2` [Compound 88], with under 10 nM; and `CNC(=O)c1cccc(Oc2ccc([C@]3(CN4Cc5ccc(OC)cc5C4=O)NC(=O)NC3=O)cc2)c1` [Compound 89], with under 10 nM; and `COc1ccc2c(c1)C(=O)N(C[C@@]1(c3ccc(Oc4cccc(C(=O)NCCN(C)C)c4)cc3)NC(=O)NC1=O)C2` [Compound 90], with under 10 nM. `CC#CCOc1ccc([C@]2(CN3Cc4ccc(OC)cc4C3=O)NC(=O)NC2=O)cc1` [Compound 91]: the Ki is under 10 nM. Still for that read-out and setting: then `COc1ccc2c(c1)C(=O)N(C[C@@]1(c3ccc(OCC#CCO)cc3)NC(=O)NC1=O)C2` [Compound 92], with under 10 nM; and `COc1ccc2c(c1)C(=O)N(C[C@@]1(c3ccc(C#Cc4cccnc4)cc3)NC(=O)NC1=O)C2` [Compound 94], with under 10 nM; and `COc1ccc2c(c1)C(=O)N(C[C@]1(c3ccc(C#Cc4cccnc4)cc3)NC(=O)NC1=O)C2` [Compound 95], with 10 to 100 nM.

As to `COc1ccc2c(c1)C(=O)N(CC1(c3ccc(-c4ccccc4CCN)cc3)NC(=O)NC1=O)C2` (stereo not shown) [Compound 96], the Ki was in the range of 10 to 100 nM. On the same count and under the same terms, then `COc1ccc2c(c1)C(=O)N(C[C@@]1(c3cc4cc(/C=N/O)ccc4o3)NC(=O)NC1=O)C2` [Compound 97], with under 10 nM; and `COc1ccc2c(c1)C(=O)N(C[C@@]1(c3cc4cc(C(N)=O)cnc4o3)NC(=O)NC1=O)C2` [Compound 98], with under 10 nM; and `COc1ccc2c(c1)C(=O)N(C[C@@]1(c3ccc(C(=O)N4CCOCC4)cc3)NC(=O)NC1=O)C2` [Compound 99], with under 10 nM. The same measure, in the same setting: then `COc1ccc2c(c1)C(=O)N(C[C@@]1(c3ccc(C(=O)O)cc3)NC(=O)NC1=O)C2` [Compound 100], with under 10 nM; and `COc1ccc2c(c1)C(=O)N(C[C@@]1(c3ccc(C#N)cc3)NC(=O)NC1=O)C2` [Compound 101], with under 10 nM. Consider `COc1ccc2c(c1)C(=O)N(C[C@@]1(c3cc4cc(C#N)ccc4o3)NC(=O)NC1=O)C2` [Compound 102], for which the Ki was under 10 nM. The same measure, in the same setting: then `COc1ccc2c(c1)C(=O)N(C[C@@]1(c3ccc(C(N)=O)cc3)NC(=O)NC1=O)C2` [Compound 103], with under 10 nM; and `COc1ccc2c(c1)C(=O)N(C[C@@]1(c3ccc(-c4cccnc4C#N)cc3)NC(=O)NC1=O)C2` [Compound 104], with under 10 nM; and `COc1ccc2c(c1)C(=O)N(C[C@@]1(c3ccc(-c4ccc(S(N)(=O)=O)cc4)cc3)NC(=O)NC1=O)C2` [Compound 105], with under 10 nM.
